Measurements from patent publication US6518262B1, “22R-hydroxycholesta-8, 14-diene derivatives for the inhibition of meiosis” (Akzo Nobel N.V., priority 1999, dated 2003).

Test system: denuded oocytes (DO)
Experiment: Oocyte assay, antagonistic testing, inhibition of FF-Mas induced maturation in denuded oocytes (DO assay)
Type: cell-based, mice (B6D2-F1, strain C57BL×DBA)
Details: FF-Mas 5 μM, compound tested 5 μM, control (FF-Mas alone) in brackets
Description: The meiosis inhibiting activity of the 22R-hydroxycholesta-8,14-diene derivatives of the invention is measured in an in vitro oocyte assay as the ability to inhibit the FF-Mas or 22S-hydroxy-FF-Mas induced maturation, in hypoxanthine media, in denuded oocytes (DO) or cumulus enclosed oocytes (CEO), respectively. Natural resumption of meiosis can be mimicked in vitro by addition of FF-Mas or other agonists to the culture medium containing hypoxanthine. The antagonistic activity of the compounds is measured as the ability to inhibit the FF-Mas or 22S-hydroxy-FF-Mas induced oocyte maturation in denuded oocytes or cumulus enclosed oocytes, respectively, in vitro. Ovaries are obtained from immature female mice (B6D2-F1, strain C57BL×DBA). At the age of 19, 20 or 21 days the mice are injected subcutaneously with a single dose of 20 IU follicle stimulating hormone (Humegon, Organon, The Netherlands) in saline. Forty-eight hours after follicle stimulating hormone injection mice are killed by cervical dislocation. The ovaries are removed, freed of extraneous tissue and placed in a multidish containing 0.5 ml preparation medium at 37° C. L-15 Leibovitz medium (Gibco, pH 7.3±0.1) supplemented with bovine serum albumin (3 mg·ml^−1), L-glutamine (0.23 mM), sodium pyruvate (2 mM) and hypoxanthine (4 mM) is used as preparation medium. The antral follicles of the ovaries are punctured under a dissecting microscope using two 27-gauge needles attached to two 1 ml syringes. […] At t=0 the number of oocytes with intact germinal vesicles (GV) or germinal vesicle break-down (GVBD) is counted under an inverted microscope with differential interference contrast equipment. […] At the end of the culture period the number of oocytes with GV or GVBD per group is counted. For statistical analysis the percentage germinal vesicle breakdown is calculated for each group in one block. These percentages are subjected to arcsin transformation, and differences between control and test compounds are analyzed by an ANOVA test for a randomized block design. […]

Compound: CC(C)=CC[C@@H](O)[C@@H](C)[C@H]1CC=C2C3=C(CC[C@@]21C)[C@@]1(C)CC[C@H](O)C(C)(C)[C@@H]1CC3 [Example 2, (3β,5α,20S,22R)-4,4-Dimethylcholesta-8,14,24-triene-3,22-diol]
- % GVBD DO assay exp.: 0(90) %

Compound: CC(C)CC[C@@H](O)[C@@H](C)[C@H]1CC=C2C3=C(CC[C@@]21C)[C@@]1(C)CC[C@H](O)C(C)(C)[C@@H]1CC3 [Example 1, (3β,5α,20S,22R)-4,4-Dimethylcholesta-8,14-diene-3,22-diol]
- % GVBD DO assay exp.: 0(55) %
